Holding throughout (experiment): biochemical
Parameters in all cases: KINOMEscan competition binding panel (Eurofins DiscoverX), single concentration, percent inhibition
What all share (settings): read-out: 15 at 1 µM % inhibition

The target of test [1] is T1, ABL1(E255K)-phosphorylated (Homo sapiens, UniProt P00519, E255K).
T1 construct: phosphorylated
Summed up: (§1)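 KINOMEscan binding panel of >400 kinases, run by Eurofins DiscoverX, with compounds tested at a single concentration of 1 µM.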

Another test addresses CASK (Homo sapiens, UniProt O14936). Summed up:
as §1

For a further test, the target named is T2, CDK4-cyclinD1 (Homo sapiens, UniProt P11802).
T2 construct: cyclinD1
In short, it runs like this:
as §1

The next test has as its target DAPK1 (Homo sapiens, UniProt P53355). In short, it runs like this: as §1
Another test concerns the target EGFR(L747-T751del,Sins) (Homo sapiens, UniProt P00533, DEL747-750/T751S). Summed up: as §1
A further test concerns the target T3, FAK (Homo sapiens, UniProt Q05397).
T3 construct: gene PTK2
Summed up: as §1

The next test deals with GRK7 (Homo sapiens, UniProt Q8WTQ7). Summed up: as §1
Test [2] has as its target T4, JAK2(JH1domain-catalytic) (Homo sapiens, UniProt O60674).
T4 construct: JH1domain-catalytic
Summed up: as §1

For the next test, the target named is LTK (Homo sapiens, UniProt P29376). Summed up: as §1
A further test concerns the target MAP3K2 (Homo sapiens, UniProt Q9Y2U5). Summed up: as §1
The target in a further test is MAPKAPK2 (Homo sapiens, UniProt P49137). In short, it runs like this:
as §1

The next test addresses MARK3 (Homo sapiens, UniProt P27448). Summed up:
as §1

Another test has as its target MERTK (Homo sapiens, UniProt Q12866). In short, it runs like this:
as §1

The next test concerns the target MET (Homo sapiens, UniProt P08581). Summed up: as §1
The target of another test is T5, MST4 (Homo sapiens, UniProt Q9P289).
T5 construct: gene STK26
In short, it runs like this: as §1

A further test concerns the target T6, NIK (Homo sapiens, UniProt Q99558).
T6 construct: gene MAP3K14
In short, it runs like this:
as §1

The target in the next test is T7, PFTAIRE2 (Homo sapiens, UniProt Q96Q40).
T7 construct: gene CDK15
In short, it runs like this: as §1

For the next test, the target named is PHKG2 (Homo sapiens, UniProt P15735). Summed up: as §1
The target in another test is PIK3CA(E542K) (Homo sapiens, UniProt P42336, E542K). In short, it runs like this: as §1
A further test has as its target PRKCQ (Homo sapiens, UniProt Q04759). Summed up: as §1
The next test deals with RET (Homo sapiens, UniProt P07949). Summed up:
as §1

The target of test [3] is T8, RPS6KA4(Kin.Dom.1-N-terminal) (Homo sapiens, UniProt O75676).
T8 construct: Kin.Dom.1-N-terminal
Summed up: as §1

The target of a further test is SLK (Homo sapiens, UniProt Q9H2G2). Summed up:
as §1

The target in a further test is TNIK (Homo sapiens, UniProt Q9UKE5). Summed up:
as §1

T6 sequence (Q99558 whole entry): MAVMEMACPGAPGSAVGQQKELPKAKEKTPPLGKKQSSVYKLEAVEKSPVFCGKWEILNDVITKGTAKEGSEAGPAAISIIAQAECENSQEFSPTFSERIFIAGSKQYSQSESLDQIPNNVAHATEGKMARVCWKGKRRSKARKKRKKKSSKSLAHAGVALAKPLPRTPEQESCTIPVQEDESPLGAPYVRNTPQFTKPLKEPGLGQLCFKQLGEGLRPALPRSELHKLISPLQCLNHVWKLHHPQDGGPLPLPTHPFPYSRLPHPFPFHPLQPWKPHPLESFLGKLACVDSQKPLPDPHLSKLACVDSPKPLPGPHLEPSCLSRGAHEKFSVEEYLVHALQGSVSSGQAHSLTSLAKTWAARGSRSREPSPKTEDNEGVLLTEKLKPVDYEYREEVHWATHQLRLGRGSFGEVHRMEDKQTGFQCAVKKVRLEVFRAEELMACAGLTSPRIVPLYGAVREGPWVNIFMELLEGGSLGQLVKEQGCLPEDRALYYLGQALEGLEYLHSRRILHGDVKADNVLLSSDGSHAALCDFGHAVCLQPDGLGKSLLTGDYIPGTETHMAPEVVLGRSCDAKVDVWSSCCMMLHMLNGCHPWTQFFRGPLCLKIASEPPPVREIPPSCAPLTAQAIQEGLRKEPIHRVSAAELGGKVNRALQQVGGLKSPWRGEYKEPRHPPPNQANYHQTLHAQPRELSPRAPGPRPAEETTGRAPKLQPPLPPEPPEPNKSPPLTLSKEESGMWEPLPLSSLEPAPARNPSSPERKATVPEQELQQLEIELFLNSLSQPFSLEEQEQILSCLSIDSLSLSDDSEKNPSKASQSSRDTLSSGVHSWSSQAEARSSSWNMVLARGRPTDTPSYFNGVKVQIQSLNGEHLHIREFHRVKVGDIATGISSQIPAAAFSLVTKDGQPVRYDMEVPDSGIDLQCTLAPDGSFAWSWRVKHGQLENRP
T1 sequence (P00519 whole entry E255K): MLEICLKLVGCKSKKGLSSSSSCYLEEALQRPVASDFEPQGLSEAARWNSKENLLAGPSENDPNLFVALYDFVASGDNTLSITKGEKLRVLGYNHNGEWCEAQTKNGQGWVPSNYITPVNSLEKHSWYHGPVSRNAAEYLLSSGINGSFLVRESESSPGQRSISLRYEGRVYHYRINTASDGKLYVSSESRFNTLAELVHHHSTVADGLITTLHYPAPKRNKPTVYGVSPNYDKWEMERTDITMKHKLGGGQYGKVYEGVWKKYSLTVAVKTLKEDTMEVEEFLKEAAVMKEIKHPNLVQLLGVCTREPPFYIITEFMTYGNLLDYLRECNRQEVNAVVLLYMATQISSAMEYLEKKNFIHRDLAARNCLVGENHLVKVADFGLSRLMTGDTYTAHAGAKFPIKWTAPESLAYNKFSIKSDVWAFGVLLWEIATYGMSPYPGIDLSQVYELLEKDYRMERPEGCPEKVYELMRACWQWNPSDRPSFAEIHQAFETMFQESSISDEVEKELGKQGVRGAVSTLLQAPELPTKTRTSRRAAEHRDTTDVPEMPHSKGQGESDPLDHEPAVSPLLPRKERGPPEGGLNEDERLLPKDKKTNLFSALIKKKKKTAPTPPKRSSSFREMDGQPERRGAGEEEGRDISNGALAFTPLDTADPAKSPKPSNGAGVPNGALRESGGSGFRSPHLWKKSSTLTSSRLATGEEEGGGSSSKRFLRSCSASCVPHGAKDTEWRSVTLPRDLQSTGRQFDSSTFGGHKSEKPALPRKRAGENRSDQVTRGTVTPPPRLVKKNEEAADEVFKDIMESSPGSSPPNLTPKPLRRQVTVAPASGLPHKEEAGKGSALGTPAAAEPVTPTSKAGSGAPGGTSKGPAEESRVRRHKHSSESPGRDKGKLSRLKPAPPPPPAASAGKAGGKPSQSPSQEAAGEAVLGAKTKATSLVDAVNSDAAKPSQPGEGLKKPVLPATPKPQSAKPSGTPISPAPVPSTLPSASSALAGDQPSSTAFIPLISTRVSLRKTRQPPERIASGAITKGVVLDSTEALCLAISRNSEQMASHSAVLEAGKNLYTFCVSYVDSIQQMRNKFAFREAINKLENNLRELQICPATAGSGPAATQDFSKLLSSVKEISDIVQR
TNIK, sequence (Q9UKE5 whole entry): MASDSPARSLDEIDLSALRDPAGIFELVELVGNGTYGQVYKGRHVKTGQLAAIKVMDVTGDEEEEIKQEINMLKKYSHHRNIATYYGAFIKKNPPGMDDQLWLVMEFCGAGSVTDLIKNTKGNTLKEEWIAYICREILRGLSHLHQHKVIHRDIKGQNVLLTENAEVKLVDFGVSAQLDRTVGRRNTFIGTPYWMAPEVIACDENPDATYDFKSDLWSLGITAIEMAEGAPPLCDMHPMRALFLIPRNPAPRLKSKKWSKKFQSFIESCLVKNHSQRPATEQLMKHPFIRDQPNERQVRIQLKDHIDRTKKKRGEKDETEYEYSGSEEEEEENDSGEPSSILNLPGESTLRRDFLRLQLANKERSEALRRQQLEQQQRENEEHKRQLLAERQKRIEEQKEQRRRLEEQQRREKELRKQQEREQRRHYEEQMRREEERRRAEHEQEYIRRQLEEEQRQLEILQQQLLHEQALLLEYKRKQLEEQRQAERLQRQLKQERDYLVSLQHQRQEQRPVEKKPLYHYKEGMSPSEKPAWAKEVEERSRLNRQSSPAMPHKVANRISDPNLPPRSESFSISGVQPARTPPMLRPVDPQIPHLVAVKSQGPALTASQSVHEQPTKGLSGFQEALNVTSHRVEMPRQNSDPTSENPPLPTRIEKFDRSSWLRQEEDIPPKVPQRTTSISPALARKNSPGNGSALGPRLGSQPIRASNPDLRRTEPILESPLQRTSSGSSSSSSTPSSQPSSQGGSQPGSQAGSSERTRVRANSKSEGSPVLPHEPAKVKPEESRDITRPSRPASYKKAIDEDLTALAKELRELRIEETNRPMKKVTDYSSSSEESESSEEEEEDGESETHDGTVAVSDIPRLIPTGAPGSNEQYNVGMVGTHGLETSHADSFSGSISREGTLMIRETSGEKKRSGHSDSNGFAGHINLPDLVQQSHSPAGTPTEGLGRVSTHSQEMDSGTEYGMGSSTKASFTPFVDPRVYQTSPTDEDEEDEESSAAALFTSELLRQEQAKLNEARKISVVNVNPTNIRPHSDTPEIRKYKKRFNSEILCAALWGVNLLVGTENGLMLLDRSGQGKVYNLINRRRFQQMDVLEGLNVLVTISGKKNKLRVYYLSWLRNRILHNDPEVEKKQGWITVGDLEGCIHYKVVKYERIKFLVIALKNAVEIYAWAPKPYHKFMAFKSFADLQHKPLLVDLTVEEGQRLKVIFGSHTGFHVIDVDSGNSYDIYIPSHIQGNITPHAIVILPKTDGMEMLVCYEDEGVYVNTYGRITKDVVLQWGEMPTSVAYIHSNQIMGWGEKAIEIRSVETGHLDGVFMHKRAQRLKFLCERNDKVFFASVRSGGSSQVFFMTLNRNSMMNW
MET, sequence (P08581 whole entry): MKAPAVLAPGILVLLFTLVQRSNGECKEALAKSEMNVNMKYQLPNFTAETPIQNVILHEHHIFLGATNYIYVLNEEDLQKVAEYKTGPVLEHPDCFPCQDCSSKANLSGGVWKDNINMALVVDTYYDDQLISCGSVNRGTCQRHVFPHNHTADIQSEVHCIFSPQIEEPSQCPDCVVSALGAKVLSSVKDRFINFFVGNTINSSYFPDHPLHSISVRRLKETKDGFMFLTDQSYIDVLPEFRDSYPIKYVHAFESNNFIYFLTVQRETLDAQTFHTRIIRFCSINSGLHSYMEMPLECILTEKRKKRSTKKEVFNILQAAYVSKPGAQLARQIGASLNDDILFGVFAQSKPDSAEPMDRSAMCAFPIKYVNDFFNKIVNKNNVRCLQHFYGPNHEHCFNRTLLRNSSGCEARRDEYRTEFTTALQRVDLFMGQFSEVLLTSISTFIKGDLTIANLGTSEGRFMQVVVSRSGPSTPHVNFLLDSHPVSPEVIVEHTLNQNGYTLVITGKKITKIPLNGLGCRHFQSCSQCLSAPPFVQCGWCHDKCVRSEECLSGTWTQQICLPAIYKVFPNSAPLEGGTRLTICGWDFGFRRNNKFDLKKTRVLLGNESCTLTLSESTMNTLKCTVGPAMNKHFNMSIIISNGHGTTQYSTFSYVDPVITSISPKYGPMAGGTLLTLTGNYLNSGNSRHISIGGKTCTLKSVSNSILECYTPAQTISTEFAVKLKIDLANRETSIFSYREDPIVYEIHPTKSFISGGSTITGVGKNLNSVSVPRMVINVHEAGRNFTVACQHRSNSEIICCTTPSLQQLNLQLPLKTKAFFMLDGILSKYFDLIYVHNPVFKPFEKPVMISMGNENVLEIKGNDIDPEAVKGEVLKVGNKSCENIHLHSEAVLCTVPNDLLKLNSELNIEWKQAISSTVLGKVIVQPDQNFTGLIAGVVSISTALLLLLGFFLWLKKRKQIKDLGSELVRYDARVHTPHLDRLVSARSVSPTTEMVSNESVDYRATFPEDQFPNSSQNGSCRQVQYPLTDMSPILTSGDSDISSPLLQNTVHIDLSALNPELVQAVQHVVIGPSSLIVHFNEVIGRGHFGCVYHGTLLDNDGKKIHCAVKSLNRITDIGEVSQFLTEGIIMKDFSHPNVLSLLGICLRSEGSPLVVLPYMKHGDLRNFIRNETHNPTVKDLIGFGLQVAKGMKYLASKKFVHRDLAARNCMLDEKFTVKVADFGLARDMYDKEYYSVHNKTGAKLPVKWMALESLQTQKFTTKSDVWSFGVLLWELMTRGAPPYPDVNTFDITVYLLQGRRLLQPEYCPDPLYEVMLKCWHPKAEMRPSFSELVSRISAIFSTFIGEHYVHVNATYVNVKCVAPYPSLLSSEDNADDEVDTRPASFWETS

As a reminder, the inhibition is how much of the control response was suppressed. With `CNS(=O)(=O)c1ccc(N(C)C)c(Nc2nc(C)nc3cc(OC)c(OC)cc23)c1` [compound 15, 3-((6,7-dimethoxy-2-methylquinazolin-4-yl)amino)-4-(dimethylamino)-N-methylbenzenesulfonamide], the inhibition at 1 µM in test [1] worked out at 4%; at CASK, 26%; on CDK4-cyclinD1, 36%; on DAPK1, 7%; at EGFR(L747-T751del,Sins) it was 0%; on FAK, 0%. Also, the inhibition at 1 µM at GRK7 stood at 13%; in test [2] it was 0%; on LTK, 12%; on MAP3K2, 18%; at MAPKAPK2, 0%; on MARK3 it was 0%. The inhibition at 1 µM at MERTK turned out to be 0%; on MET, 0%; at MST4, 13%; at NIK it was 12%; on PFTAIRE2 it was 5%; on PHKG2 it was 2%. Moreover, the inhibition at 1 µM at PIK3CA(E542K) worked out at 22%; on PRKCQ it was 16%; on RET, 0%; in test [3], 3%; at SLK, 0%; on TNIK, 1%.
